For one assay, the system named is Escherichia coli ON29. The assay can be described thus: MBC/MFC determination. Type of assay: cell-based. Conditions: alone; E. coli ON29. Here is the method:
(§1) An assay was made using a minimum inhibitory concentration (MIC) and minimum bactericidal concentration (MBC) and minimum fungicidal concentration (MFC) determination. The MIC was determined by the micro broth dilution method in 96-well plates. Serial two-fold dilutions of tetrasodium EDTA (from 2% to 0.015%), ethanol (from 50% to 0.1%) and chlorhexidine HCl (from 100 µg/mL to 0.025 µg/mL) were prepared in MH broth with a final volume of 90 µL per well. A 10 µL containing 1 × 10^5 bacterial cells or 2 × 10^3 fungal cells were added to each well. The inoculated plates were covered with a lid, sealed with Parafilm, and incubated for 24 h at 37° C. with slight rocking on a tilting platform shaker. After incubation, the optical density at 600 nm (OD 600 ) of the cultures in each well was measured using an xMark™ Microplate Absorbance Spectrophotometer (Bio-Rad). […] MBCs and MFCs were determined by transferring 100 µL from each well with no apparent growth onto appropriate agar plates, followed by incubation for 24 h at 37° C.

In assay [1] the test system is Staphylococcus aureus ON89. The assay can be described thus: MBC/MFC determination. Type of assay: cell-based. Particulars: alone; S. aureus ON89. Here is the method: as §1
The subject of assay [2] is Stenotrophomonas maltophilia ON17. Nature of the assay: MBC/MFC determination. Conditions: alone; S. maltophilia ON17. It counts as cell-based. As for the experimental part:
as §1

The subject of the next assay is Candida albicans SK4b. The assay can be described thus: MBC/MFC determination. Particulars: alone; C. albicans SK4b. It counts as cell-based. As for the experimental part:
as §1

Assay [3] relates to Pseudomonas aeruginosa SK1. Nature of the assay: MBC/MFC determination. It counts as cell-based. Particulars: alone; P. aeruginosa SK1. As for the experimental part: as §1
Assay [4] deals with Staphylococcus epidermidis ON170. Nature of the assay: MBC/MFC determination. Type of assay: cell-based. Conditions: alone; S. epidermidis ON170. As for the experimental part: as §1
The subject of a further assay is Serratia marcescens SK2. Nature of the assay: MBC/MFC determination. Particulars: alone; S. marcescens SK2. It counts as cell-based. Here is the method:
as §1

For a further assay, the system named is Proteus mirabilis ON153. Nature of the assay: MBC/MFC determination. Type of assay: cell-based. Particulars: alone; P. mirabilis ON153. Here is the method: as §1
For assay [5], the system named is 48-h old biofilms of test organisms. Nature of the assay: Rapid biofilm eradication, 2 h exposure. It counts as cell-based. Particulars: alone at the MBEC. Here is the method:
Determining rapid biofilm eradication by tetrasodium EDTA, ethanol, and chlorhexidine HCl alone and in combination was performed. After biofilm formation, control pegs (n = 6) were removed and analyzed to determine the starting biofilm cell numbers via the drop dilution method. The 48-h old biofilms on the pegs were exposed to different concentrations of test antimicrobials, dissolved in an appropriate growth medium, for two h to evaluate their efficacy alone and in combination. Antimicrobial solutions tested against each organism included each agent alone at the MBEC, double combinations at the FBEC, and triple combinations ranging from 5 to 20% ethanol, 2.5-5 µg/mL chlorhexidine HCl and 1- 3% tetrasodium EDTA. Following treatment, pegs were washed twice with sterile PBS, and the biofilm cells were dislodged into recovery medium and enumerated as described above.
The method for rapid biofilm eradication ability of test antimicrobials alone and in combination against 48-h-old biofilms within two h exposure time included (1) choosing different concentrations of test antimicrobials to assess their potency in eradicating preformed biofilms of study organisms within two h. Then (2) the quantitative recovery from biofilms following exposure to the antimicrobial solutions for bacterial strains (FIGS. 6A-6C) and fungal strains (FIG. 7) was evaluated.

Assay [6] deals with Staphylococcus aureus ON89 biofilm. Nature of the assay: FBEC index, checkerboard dilution on biofilms. Type of assay: cell-based. Conditions: S. aureus ON89 biofilm.
Method: In step (4), microtiter plates are incubated at 37° C. for 24 h. then (6), after incubation, the bacterial and fungal cells were dislodged from the pegs into the recovery medium described above.
Three 10-µL aliquots, for a total of 30 µL from each well of recovery medium, were spotted on MH agar plates and incubated for 24 h at 37° C. […] The FBEC determination is a modification of the FICI.
For the next assay, the system named is E. coli SK2. Nature of the assay: Checkerboard titration, FICI. It counts as cell-based, Escherichia coli. As for the experimental part: A fourth composition and solution included tetrasodium EDTA with ethanol or chlorhexidine HCl. This fourth composition and solution were created using checkerboard titration methods using micro broth dilution in 96-well microtiter plates. The concentrations of antimicrobials used were based on previously determined MIC values. Briefly, 200 µL of two-fold dilutions of tetrasodium EDTA and ethanol or chlorhexidine HCl were prepared in MH or MH II broth with standardized cell suspension. […] Microtiter plates were incubated at 37° C. for 24 h, and the results were analyzed. Each test was performed in duplicate and included a growth control without adding any antimicrobials.

Where [7] appears, read: tetrasodium EDTA + chlorhexidine HCl.

These results are taken from patent publication US20230264009A1, “DISINFECTING CAP KIT FOR LUER ACCESS DEVICES” (SterileCare Inc., priority 2022, published 2023).

Consider `O=C([O-])CN(CCN(CC(=O)[O-])CC(=O)[O-])CC(=O)[O-].[Na+].[Na+].[Na+].[Na+]` [EDTA, tetrasodium EDTA], for which the MBC/MFC in the assay on Escherichia coli ON29 is listed as 1 % w/v; in [1], 1 % w/v; in [2], 1 % w/v; in the assay on Candida albicans SK4b, 1 % w/v; in [3], 1 % w/v; in [4], 0.5 % w/v. The MBC/MFC against Serratia marcescens SK2 and in the assay with Proteus mirabilis ON153 was 2 % w/v in each case. Also, in assay [5], the “Eradication of preformed biofilms” value is recorded as “failed to eradicate”. The “FBEC (concentration in combination)” value in assay [6] (setting [7]) is 0.125 % w/v; in assay [6] (tetrasodium EDTA + ethanol), 0.063 % w/v. Moreover, the entries for the “Concentration in combination giving FICI” value in the assay with E. coli SK2 (setting [7]) and in the assay with E. coli SK2 (tetrasodium EDTA + ethanol) were 0.008 % w/v and 0.015 % w/v, respectively.
